From the supplement of paper PMC10307832

What was measured:
Assay in all cases: relative viability (nuclei count vs DMSO), 5 days (fraction); higher = more cells survive
Bemcentinib + Phenformin = compound: Nc1nc(Nc2ccc3c(c2)CC[C@@H](N2CCCC2)CC3)nn1-c1cc2c(nn1)-c1ccccc1CCC2 [Bemcentinib] + N=C(N)NC(=N)NCCc1ccccc1 [Phenformin] (partner 250 µM)
In short: (§1)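 Dosing by pin tool came one day after lung cancer cell lines were seeded in 1536-well plates, using either one drug or a fixed anchor-drug dose plus five library-drug doses (not always all listed) in √10 steps. After 5 days, nuclei were counted on 4× images. Relative viability is treated-well nuclei count divided by vehicle-well nuclei count, and values are medians of duplicate plates.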

[1] = compound: CC1=CC=C(C=C1)C(=O)CN2C3=C(CCCC3)SC2=N [Pifithrin_alpha] + COc1cccc2cc(-c3nc([C@H]4CC[C@H](C(=O)O)CC4)n4ncnc(N)c34)[nH]c12 [OSI-027] (partner 0.5 µM)
In short: as §1

Axitinib + AZD7762 = compound: CNC(=O)c1ccccc1Sc1ccc2c(/C=C/c3ccccn3)n[nH]c2c1 [Axitinib] + NC(=O)Nc1cc(-c2cccc(F)c2)sc1C(=O)N[C@H]1CCCNC1 [AZD7762] (partner 0.2 µM)
In short: as §1

Bemcentinib + OSI-027 = compound: Nc1nc(Nc2ccc3c(c2)CC[C@@H](N2CCCC2)CC3)nn1-c1cc2c(nn1)-c1ccccc1CCC2 [Bemcentinib] + COc1cccc2cc(-c3nc([C@H]4CC[C@H](C(=O)O)CC4)n4ncnc(N)c34)[nH]c12 [OSI-027] (partner 0.5 µM)
In short: as §1

| Cell Line | relative viability (Bemcentinib + Phenformin; first compound 0.04 µM) | relative viability (Bemcentinib + Phenformin; first compound 0.1265 µM) | relative viability (Bemcentinib + Phenformin; first compound 0.4 µM) | relative viability (Bemcentinib + Phenformin; first compound 1.265 µM) | relative viability (Bemcentinib + Phenformin; first compound 4 µM) | relative viability ([1]; first compound 3.162 µM) | relative viability ([1]; first compound 10 µM) | relative viability ([1]; first compound 31.62 µM) | relative viability ([1]; first compound 100 µM) | relative viability (Axitinib + AZD7762; first compound 0.005 µM) | relative viability (Axitinib + AZD7762; first compound 0.01581 µM) | relative viability (Axitinib + AZD7762; first compound 0.05 µM) | relative viability (Axitinib + AZD7762; first compound 0.1581 µM) | relative viability (Axitinib + AZD7762; first compound 0.5 µM) | relative viability (Bemcentinib + OSI-027; first compound 0.04 µM) | relative viability (Bemcentinib + OSI-027; first compound 0.1265 µM) | relative viability (Bemcentinib + OSI-027; first compound 0.4 µM) | relative viability (Bemcentinib + OSI-027; first compound 1.265 µM) | relative viability (Bemcentinib + OSI-027; first compound 4 µM) | relative viability ([1]; first compound 1 µM) |
| --- | --- | --- | --- | --- | --- | --- | --- | --- | --- | --- | --- | --- | --- | --- | --- | --- | --- | --- | --- | --- |
| NCI-H2085 | 0.694 | 0.776 | 0.688 | 0.572 | 0.697 | 0.781 | 0.473 | 0.505 | 0.398 | 1.04 | 0.908 | 1.03 | 0.983 | 0.952 | 0.722 | 0.945 | 0.764 | 0.686 | 0.752 |  |
| COR-L23 | 0.425 | 0.44 | 0.449 | 0.465 | 0.493 | 0.822 | 0.616 |  | 0.613 |  |  |  |  |  | 0.665 | 0.969 | 0.905 | 0.788 | 0.888 | 0.843 |
| NCI-H1793 | 0.395 | 0.463 | 0.384 |  | 0.336 | 0.249 | 0.201 | 0.218 | 0.198 | 0.514 | 0.394 | 0.565 | 0.304 | 0.486 | 0.265 | 0.305 | 0.299 |  | 0.282 |  |
| A549 | 0.126 | 0.124 | 0.17 | 0.121 | 0.147 |  |  |  |  |  |  |  |  |  |  |  |  |  |  |  |
| EPLC-272H | 0.372 | 0.273 | 0.27 | 0.296 | 0.352 | 0.307 | 0.245 | 0.244 | 0.256 | 0.245 | 0.165 | 0.269 | 0.234 | 0.197 | 0.342 | 0.266 | 0.318 | 0.244 | 0.361 | 0.227 |
| NCI-H2009 | 0.497 | 0.544 | 0.489 | 0.466 | 0.418 | 0.663 | 0.62 | 0.431 | 0.456 |  |  |  |  |  | 0.626 | 0.743 | 0.684 | 0.709 | 0.665 | 0.601 |
| ChaGo-K-1 | 0.486 | 0.544 | 0.517 | 0.473 | 0.442 | 0.479 | 0.53 | 0.321 | 0.482 | 0.912 | 0.862 | 0.908 | 0.868 | 0.886 | 0.515 | 0.794 | 0.626 | 0.614 | 0.531 | 0.374 |
| SW 900 | 0.396 | 0.588 | 0.557 | 0.648 | 0.458 | 0.648 | 0.502 | 0.342 | 0.357 | 0.52 |  | 0.562 | 0.579 | 0.66 | 0.446 | 0.544 | 0.71 | 0.473 | 0.419 | 0.399 |
| NCI-H2342 | 0.564 | 0.581 | 0.611 | 0.617 | 0.611 | 0.667 | 0.551 | 0.604 | 0.573 | 0.554 | 0.437 | 0.688 | 0.513 | 0.429 | 0.618 | 0.655 | 0.689 | 0.56 | 0.567 | 0.517 |
